Source: patent US20140135272A1, “NOVEL ZINC FINGER-LIKE PEPTIDE COMPOSITIONS AS POTENT AGENTS IN CANCER PREVENTION AND TREATMENT” (priority 2011, published 2014)
Changes are numbered by the printed parent chain. Entries after “also recorded” stand apart in the source; their conditions may differ. Square brackets hold non-standard residues; d marks the D form. Ends that are not written are not given here. pS = N[C@@H](COP(=O)(O)O)C(=O)O

Experiments:
Format in all cases: in vivo, nude mice
BCC cells [1] = assay: Example 2: peptide pre-injection plus boost injection, BCC cell inoculation, tumor volumes; conditions: peptide 2 mM, 100 μl i.v. per week for 3 weeks before BCC inoculation; boost per week for 3 weeks 2 months later; vs H2O control
Description: (§1) In the following examples, 8-week nude mice were used as host subjects to perform in vivo experiments. The nude mice were placed in room temperature and suitable humidity, and supplied with sterile water and standard food for 2 consecutive weeks before performing experiments. Then, the nude mice were injected with zinc finger-like peptide and tumor cells. The detailed processes for the experiments are described as follows.
(§2) First, manually synthesized zinc finger-like peptide (Genemed Synthesis Inc., San Antonio, Tex., USA) was resuspended in degassed purified water to obtain 1-5 mM of zinc finger-like peptide solution (100 μl). Herein, the solution for suspending the zinc finger-like peptide is not particularly limited. Preferably, the zinc finger-like peptide is resuspended in degassed purified water, in order to prevent the self-polymerization of the zinc finger-like peptide and loss its ability to inhibit tumor cell growth.
(§3) In the present experimental group, zinc finger-like peptide with sequence shown in SEQ ID NO: 1 was injected into nude mice.
Nude mice were injected with an intravenous injection of peptide (2 mM, 100 μl PBS) via tail veins per week for 3 consecutive weeks, followed by inoculating BCC cells (2 million cells/100 μl PBS) at both the right and left flanks. 2 months later, boost injection of peptide was carried out per week for 3 consecutive weeks. […]

[2] = system: basal cell carcinoma (BCC) cells; assay: Example 1: peptide pre-injection, then basal cell carcinoma (BCC) cell inoculation, tumor volumes; conditions: peptide 2 mM, 100 μl PBS i.v. tail vein per week for 3 weeks before BCC inoculation at both flanks; vs PBS control
Description: as §1, §2
Herein, zinc finger-like peptide with sequence shown in SEQ ID NO: 2 was injected into nude mice.
In particularly, nude mice were injected with an intravenous injection of peptide (2 mM, 100 μl phosphate-buffered saline or PBS) via tail veins per week for 3 consecutive weeks, followed by inoculating basal cell carcinoma (BCC) cells (2 million cells/100 μl PBS) at both the right and left flanks. […]

[3] = system: breast carcinoma MDA-MB-435s; assay: Example 8: breast carcinoma MDA-MB-435s inoculated first, peptide treatment from the 70th day, tumor volumes; conditions: peptide 2 mM, 100 μl per week for 4 weeks from the 70th day
Description: as §1, §2
In the present experimental group, zinc finger-like peptide with sequence shown in SEQ ID NO: 2 was injected subcutaneously into nude mice.
Nude mice received an injection of breast carcinoma MDA-MB-435s (2 million cells/100 μl PBS) […] at both the right and left flanks on the […] day, followed by injecting peptide (2 mM, 100 μl) per week for 4 consecutive weeks from the 70th day. The tumor volumes (mm^3) were observed daily during the whole experiment.
The process of the present control group was the same as that of the experimental group, except that the zinc finger-like peptide of the experimental group was substituted with PBS buffer (100 μl) in the present control group.

[4] = system: malignant melanoma B 16F10; assay: Example 4: peptide variants pre-injected, then malignant melanoma B16F10 inoculation, tumor volumes and death; conditions: peptide 2 mM, 100 μl i.v. per week for 2 weeks before B16F10 inoculation
Description: as §1, §2
Nude mice received an intravenous injection of peptide (2 mM, 100 μl) via tail veins per week for 2 consecutive weeks, followed by inoculating malignant melanoma B 16F10 (2 million cells/100 μl PBS) at both the right and left flanks. The tumor volumes (mm^3) were observed daily during the whole experiment.
as §3
In the present experimental group, zinc finger-like peptide with sequence shown in SEQ ID NO: 1, in which the fifth amino acid, serine was phosphorylated, and injected into nude mice.
In the present experimental group, zinc finger-like peptide with sequence shown in SEQ ID NO: 6 was injected into nude mice.
In the present experimental group, zinc finger-like peptide with sequence shown in SEQ ID NO: 6, in which the fourth amino acid serine was phosphorylated, and injected nude mice.
In the control group, H2O (100 μl) was injected into nude mice.

BCC cells [5] = assay: Example 5: expression plasmid injection, then BCC cell inoculation, tumor volumes; conditions: expression plasmid 100 μl via tail veins per week for 2 weeks before BCC inoculation; vs vector containing EGFP only
Description: as §1
The cDNA of zinc finger-like peptide was inserted into vector pCR3.1/CMV to form a zinc finger-like peptide expression plasmid, wherein the zinc finger-like peptide was connected to the c-terminal of EGFP.
In the present experimental group, the zinc finger-like peptide expression plasmid containing DNA sequence for expressing the zinc finger-like peptide (SEQ ID NO: 4) (100 μl) was injected into nude mice via tail veins per week for 2 consecutive weeks, to express zinc finger-like peptide. Then, BCC cells (2 million cells/100 μl medium) were inoculated into nude mice at both the right and left flanks. The tumor volumes (mm^3) were observed daily during the whole experiment.
The process of the present experimental group was the same as that of the experimental group 1, except that the DNA sequence shown in SEQ ID NO: 4 was substituted with DNA sequence shown in SEQ ID NO: 7. […]

MSSRRSSGCKYCEQD [SEQ ID NO: 5, zinc finger-like peptide with serine mutation]
tumor growth (tumor volumes) (BCC cells [1]): the therapeutic effect of the zinc finger-like peptide is decreased; also recorded: still has better treatment effect than H2O

MSSRRSSSCKYCEQDFRAHTQKNAATPFLAN [SEQ ID NO: 2, zinc finger-like peptide, manually synthesized]
tumor growth (tumor volumes) [2]: inhibited the growth of skin cancer cell on nude mice | day from which tumor volumes were significantly increased ([3]; MDA-MB-435s inoculated first): 89 days | maximum tumor volumes ([3]; observed on the 100th day): 1000 mm^3 | tumor volumes reduced to ([3]; on the 113th day, after the maximum): 50% | tumor cell growth terminated compared to the control group ([3]; vs PBS control group): 75%

RSSSCK [SEQ ID NO: 6, zinc finger-like peptide, called cysteine deletion]
day on which the nude mice died [4]: 31 days

SEQ ID NO: 1, in which the fifth amino acid, serine was phosphorylated: SEQ ID NO: 1 (RRSSSCK) with the fifth amino acid, serine, phosphorylated (RRSS[pS]CK)
day on which the nude mice died [4]: 35 days

SEQ ID NO: 6, in which the fourth amino acid serine was phosphorylated: SEQ ID NO: 6 (RSSSCK) with the fourth amino acid serine phosphorylated (RSS[pS]CK)
day on which the nude mice died [4]: 35 days

B1: atgagcagca gaaggtcgtc ttcttgtaaa tattgtgaac aggacttccg agcacacaca cagaagaatg cggccacacc cttcctagcc aac (nucleic acid)
chain: ATGAGCAGCAGAAGGTCGTCTTCTTGTAAATATTGTGAACAGGACTTCCGAGCACACACACAGAAGAATGCGGCCACACCCTTCCTAGCCAAC
modifications: expressed or natural sequence
tumor growth (tumor volumes) (BCC cells [5]): the growth of tumor cells can be inhibited and the volume thereof can be reduced

B2: atgagcagca gaaggtcgtc tggctgtaaa tattgtgaac aggacttccg agcacacaca cagaagaatg cggccacacc cttcctagcc aac (nucleic acid)
chain: B1 chain with T22G, C23G, T24C
modifications: chemistry not given here
tumor growth (tumor volumes) (BCC cells [5]): can slightly inhibit the growth of the tumor cells
